Measured values taken from patent publication US20070049585A1, “BENZAMIDE AND BENZOATE ANTI-HIV COMPOUNDS” (priority 2004, published 2007).
“Also recorded” adds a separate entry of the source. Where two headings read alike, the source gives them in different places.

Assays:
HIV-1 IIIB = assay: AV-Finder-HIV Drug Discovery Assay: inhibition of HIV-1 IIIB replication in HeLa indicator cells (GFP fluorescence); type: cell-based
Source text: In order to study the viral replication in vitro, the GenPhar (Mt. Pleasant, S.C.) AV-Finder™-HIV Drug Discovery Assay was used, that consists of two components: (1) a cloned, continuous-passage HeLa cell line containing an HIV-1 tat-activated molecular switch and a Green Fluorescent Protein reporter gene and (2) a recombinant adenovirus (rAd) vector containing the genes for all three of the HIV-1 receptor/co-receptors (CD4, CXCR4, and CCR5) to transduce into HeLa cells and convert them into highly susceptible HIV-1 indicator cells for use in the assay. The indicator cells over-express the HIV-1 receptor genes and are readily infected with any HIV-1 strain or isolate. […] Infected cells fluoresce brightly so that the inhibition of virus replication by potential antiviral drugs can be readily detected and quantified using standard laboratory plate reader technology.
(§1) Detector plates are set up at day 1 by adding HeLa cells (3000/well) to the adenovirus AD-3R in DMEM containing CCS in 96-well plates and to incubate at 37° C. under 95% humidity and 5% CO2 for 2 days. […] At day 4, the medium was replaced by fresh medium containing the corresponding concentration of the compounds of interest. The infectivity was assessed by measuring the fluorescence on each well at day 7 ([…]). […] At day 5, the medium was replaced by fresh medium containing the corresponding concentration of compounds of interest and the infectivity was assessed by measuring the fluorescence on each well at day 8. Results are expressed as percentage of inhibition of the viral replication.
Procaine HCl was used either alone dissolved in water (SP01) or in an Anticort-like formulation (SP01A) containing zinc sulfate heptahydrate and ascorbic acid at the ratio of about 27-107/1/1.3-2.0 (for example 200 mg procaine HCl with 7.5 mg of zinc sulfate heptahydrate and 12.5 mg of ascorbic acid; Xu, J. et al. J Pharmacol. Exper. Ther. 2003 307:1148-1157) (Samaritan Pharmaceuticals).

HeLa cells = assay: MTT cytotoxicity assay (mitochondrial integrity); type: cell-based, human
Experimental: Following the above described cell treatment protocol, the levels of cellular 3-(4,5-dimethylthiazol-2-yl)-2,5-diphenyl tetrazolium bromide (MTT) reduction, a measure of mitochondrial integrity, were determined in order to examine whether the compounds tested were cytotoxic.

HIV MDR 769 strain = assay: Inhibition of multi-drug resistant HIV MDR 769 strain replication in HeLa cells, without pre-medication; type: cell-based
Source text: In order to study the viral replication in vitro, the GenPhar (Mt. Pleasant, S.C.) AV-Finder™-HIV Drug Discovery Assay was used, that consists of two components: (1) a cloned, continuous-passage HeLa cell line containing an HIV-1 tat-activated molecular switch and a Green Fluorescent Protein reporter gene and (2) a recombinant adenovirus (rAd) vector containing the genes for all three of the HIV-1 receptor/co-receptors (CD4, CXCR4, and CCR5) to transduce into HeLa cells and convert them into highly susceptible HIV-1 indicator cells for use in the assay. The indicator cells over-express the HIV-1 receptor genes and are readily infected with any HIV-1 strain or isolate. All HIV-1 strains tested thus far, regardless of co-receptor preference, and all subtypes or clades of HIV-1 will infect these indicator cells. Infected cells fluoresce brightly so that the inhibition of virus replication by potential antiviral drugs can be readily detected and quantified using standard laboratory plate reader technology.
as §1

Nc1ccn([C@@H]2CS[C@H](CO)O2)c(=O)n1 [3TC]
inhibition of viral replication reached (maximal) (HIV-1 IIIB; no pre-medication, dose-dependent, maximal concentrations): 90%

Cc1cn([C@H]2C[C@H](N=[N+]=[N-])[C@@H](CO)O2)c(=O)[nH]c1=O [AZT]
IC50 (HeLa cells): 161 µM
effect on HIV MDR 769 strain replication (HIV MDR 769 strain): ineffective; also recorded: not effective
inhibition of the replication at the peak concentration (HIV-1 IIIB; 24 hours pre-medication, 30 pM): < 30%
IC50 (HIV-1 IIIB; 48 hours pretreatment): 0.03 µM

CCN(CC)CCOC(=O)c1ccc(N)cc1 [SP01, 4-aminobenzoic acid 2-(diethylamino)ethyl ester]
cell toxicity by MTT cytotoxicity assay (HeLa cells; all concentrations tested, up to 100 μM): devoid of cell toxicity
effect on HIV MDR 769 strain replication (HIV MDR 769 strain): effectively blocked
effect on HIV MDR 769 strain replication (HIV MDR 769 strain; concentrations higher than 1 nM): not effective
inhibition of HIV MDR 769 viral replication (HIV MDR 769 strain; concentrations up to 1 nM): 75%
inhibition of HIV replication (HIV-1 IIIB; 48 hours pretreatment, all concentrations tested): 75%
efficacy in reducing HIV-1 IIIB replication compared with AZT, ddI or 3TC (HIV-1 IIIB; human cells): efficacy higher than AZT, ddI or 3TC
efficacy of inhibition of HIV-1 IIIB viral replication compared with 3TC (HIV-1 IIIB; no pre-medication, concentrations up to 0.1 μM): higher efficacy than the classical antiviral agent 3TC

CCN(CC)CCNC(=O)c1ccc(N)cc1 [SP100, procainamide]
effect on HIV MDR 769 strain replication (HIV MDR 769 strain): effectively blocked

O=c1[nH]cnc2c1ncn2[C@H]1CC[C@@H](CO)O1 [ddI]
IC50 (HeLa cells): 89 µM
inhibition of viral replication (strongest inhibition) (HIV-1 IIIB; no pre-medication, 0.01 μM): 26.37±26.11%
